Among the data in PubChem BioAssay AID226 (DTP/NCI, 2004) are T/C values, retold here.

This assay has as its system B6C3F1 mice, intracerebral ependymoblastoma, median survival T/C. The assay is described as follows: NCI In Vivo Anticancer Drug Screen. Data for tumor model Ependymoblastoma (intracerebral) in B6C3F1 mice. The conditions noted are these: endpoint: median survival time, higher = longer survival. As to the method: The antitumor activity of compounds was measured in mice bearing transplantable tumors. Survival or tumor size were measured and the results are expressed as the measurement made in the treated group (T) divided by the measurement made in the vehicle treated control group (C). The tumor model used in this assay is Ependymoblastoma (intracerebral) in B6C3F1 mice

The mark [1] stands for this setting: dose: 100.0 mg/kg/injection, schedule: Q01DX005 (ip), vehicle: saline with Tween-80.
Setting [2] is: dose: 12.5 mg/kg/injection, schedule: Q01DX005 (ip), vehicle: Klucel (hydroxypropylcellulose) (HPC).
The mark [3] stands for this setting: dose: 25.0 mg/kg/injection, schedule: Q01DX005 (ip), vehicle: Klucel (hydroxypropylcellulose) (HPC).
[4] abbreviates: dose: 50.0 mg/kg/injection, schedule: Q01DX005 (ip), vehicle: Klucel (hydroxypropylcellulose) (HPC).
The mark [5] stands for this setting: dose: 64.0 mg/kg/injection, schedule: Q01DX005 (ip), vehicle: saline with Tween-80.

Values joined by “and” are separate entries in the source; they are usually repeats but may differ in a detail not shown here. Identical values can stand only once. Toxic doses and inconclusive results are not listed.

In the case of `CC(=O)OC1COC(NC(=O)N(CCCl)N=O)C(OC(C)=O)C1OC(C)=O` (stereo unspecified), the T/C is, setting by setting: (dose: 0.18 mg/kg/injection, schedule: Q01DX009 (ip), vehicle: saline with Tween-80) 103 % of control; (dose: 0.38 mg/kg/injection, schedule: Q01DX009 (ip), vehicle: saline with Tween-80) 117 % of control; (dose: 0.75 mg/kg/injection, schedule: Q01DX005 (ip), vehicle: saline with Tween-80) 113 % of control; (dose: 1.5 mg/kg/injection, schedule: Q01DX005 (ip), vehicle: saline with Tween-80) 96 % of control and 121 % of control; (dose: 3.0 mg/kg/injection, schedule: Q01DX005 (ip), vehicle: saline with Tween-80) 91 % of control; (dose: 3.0 mg/kg/injection, schedule: Q01DX009 (ip), vehicle: saline with Tween-80) 178 % of control. For the same molecule, the T/C runs as follows: (dose: 6.0 mg/kg/injection, schedule: Q01DX005 (ip), vehicle: saline with Tween-80) 107 % of control; (dose: 6.0 mg/kg/injection, schedule: Q01DX009 (ip), vehicle: saline with Tween-80) 165 % of control; (dose: 12.0 mg/kg/injection, schedule: Q01DX005 (ip), vehicle: saline with Tween-80) 158 % of control.
On to `COCC(O)Cn1ccnc1[N+](=O)[O-]` (stereo unspecified), for which the T/C runs as follows: (dose: 32.0 mg/kg/injection, schedule: Q01DX005 (ip), vehicle: Klucel (hydroxypropylcellulose) (HPC)) 97 % of control; (dose: 64.0 mg/kg/injection, schedule: Q01DX005 (ip), vehicle: Klucel (hydroxypropylcellulose) (HPC)) 96 % of control; under setting [1], 97 % of control and 111 % of control; (dose: 100.0 mg/kg/injection, schedule: Q01DX009 (ip), vehicle: saline with Tween-80) 91 % of control and 112 % of control; (dose: 100.0 mg/kg/injection, schedule: Q12HX010 (ip), vehicle: saline with Tween-80) 109 % of control; (dose: 100.0 mg/kg/injection, schedule: Q#A X010 (ip), vehicle: saline with Tween-80) 167 % of control. Further, the T/C was 86 % of control (dose: 100.0 mg/kg/injection, schedule: Q#ADX018 (ip), vehicle: saline with Tween-80); 93 % of control (dose: 128.0 mg/kg/injection, schedule: Q01DX005 (ip), vehicle: Klucel (hydroxypropylcellulose) (HPC)); 106 % of control and 88 % of control (dose: 200.0 mg/kg/injection, schedule: Q01DX005 (ip), vehicle: saline with Tween-80); 94 % of control and 107 % of control (dose: 200.0 mg/kg/injection, schedule: Q01DX009 (ip), vehicle: saline with Tween-80); 118 % of control (dose: 200.0 mg/kg/injection, schedule: Q12HX010 (ip), vehicle: saline with Tween-80); 172 % of control (dose: 200.0 mg/kg/injection, schedule: Q#A X010 (ip), vehicle: saline with Tween-80). Besides, the T/C was 94 % of control (dose: 200.0 mg/kg/injection, schedule: Q#ADX018 (ip), vehicle: saline with Tween-80); 92 % of control (dose: 256.0 mg/kg/injection, schedule: Q01DX005 (ip), vehicle: Klucel (hydroxypropylcellulose) (HPC)); 92 % of control and 105 % of control (dose: 400.0 mg/kg/injection, schedule: Q01DX005 (ip), vehicle: saline with Tween-80); 96 % of control and 98 % of control (dose: 400.0 mg/kg/injection, schedule: Q01DX009 (ip), vehicle: saline with Tween-80); 117 % of control (dose: 400.0 mg/kg/injection, schedule: Q12HX010 (ip), vehicle: saline with Tween-80); 167 % of control (dose: 400.0 mg/kg/injection, schedule: Q#A X010 (ip), vehicle: saline with Tween-80). Besides, the T/C was 100 % of control (dose: 400.0 mg/kg/injection, schedule: Q#ADX018 (ip), vehicle: saline with Tween-80); 96 % of control (dose: 512.0 mg/kg/injection, schedule: Q01DX005 (ip), vehicle: Klucel (hydroxypropylcellulose) (HPC)); 101 % of control (dose: 800.0 mg/kg/injection, schedule: Q01DX005 (ip), vehicle: saline with Tween-80); 103 % of control and 104 % of control (dose: 800.0 mg/kg/injection, schedule: Q01DX009 (ip), vehicle: saline with Tween-80); 99 % of control (dose: 800.0 mg/kg/injection, schedule: Q12HX010 (ip), vehicle: saline with Tween-80); 165 % of control (dose: 800.0 mg/kg/injection, schedule: Q#A X010 (ip), vehicle: saline with Tween-80). Also, the T/C (dose: 800.0 mg/kg/injection, schedule: Q#ADX018 (ip), vehicle: saline with Tween-80) was 94 % of control.
`C/C(=C\c1ccccc1)[N+](=O)[O-]`: the T/C (dose: 3.12 mg/kg/injection, schedule: Q01DX005 (ip), vehicle: Klucel (hydroxypropylcellulose) (HPC)) is 96 % of control; the T/C (dose: 6.25 mg/kg/injection, schedule: Q01DX005 (ip), vehicle: Klucel (hydroxypropylcellulose) (HPC)) was 100 % of control; the T/C under setting [2] was 92 % of control; the T/C under setting [3] was 92 % of control; the T/C under setting [4] is 91 % of control; the T/C (dose: 100.0 mg/kg/injection, schedule: Q01DX005 (ip), vehicle: Klucel (hydroxypropylcellulose) (HPC)) was 91 % of control.
`CCCCN(C)N=Nc1c(C(N)=O)n[nH]c1C`: the T/C under setting [5] is 166 % of control.
Turning to `CN(CO)c1nc(N(C)CO)nc(N(C)CO)n1`, the T/C (dose: 0.78 mg/kg/injection, schedule: Q01DX005 (ip), vehicle: saline with Tween-80) was 98 % of control; the T/C (dose: 1.56 mg/kg/injection, schedule: Q01DX005 (ip), vehicle: saline with Tween-80) is 100 % of control and 105 % of control; the T/C (dose: 3.12 mg/kg/injection, schedule: Q01DX005 (ip), vehicle: saline with Tween-80) is 94 % of control and 105 % of control and 110 % of control; the T/C (dose: 3.12 mg/kg/injection, schedule: Q01DX009 (ip), vehicle: Klucel (hydroxypropylcellulose) (HPC)) was 95 % of control and 120 % of control; the T/C (dose: 4.0 mg/kg/injection, schedule: Q01DX005 (ip), vehicle: saline with Tween-80) is 98 % of control; the T/C (dose: 6.25 mg/kg/injection, schedule: Q01DX009 (ip), vehicle: Klucel (hydroxypropylcellulose) (HPC)) is 96 % of control and 108 % of control and 111 % of control. For the same molecule, the T/C is 89 % of control (dose: 8.0 mg/kg/injection, schedule: Q01DX005 (ip), vehicle: saline with Tween-80); 93 % of control and 111 % of control (dose: 12.5 mg/kg/injection, schedule: Q01DX009 (ip), vehicle: Klucel (hydroxypropylcellulose) (HPC)); 97 % of control (dose: 16.0 mg/kg/injection, schedule: Q01DX005 (ip), vehicle: saline with Tween-80); 104 % of control and 114 % of control and 124 % of control (dose: 25.0 mg/kg/injection, schedule: Q01DX009 (ip), vehicle: Klucel (hydroxypropylcellulose) (HPC)); 94 % of control (dose: 32.0 mg/kg/injection, schedule: Q01DX005 (ip), vehicle: saline with Tween-80); 120 % of control (dose: 50.0 mg/kg/injection, schedule: Q01DX009 (ip), vehicle: Klucel (hydroxypropylcellulose) (HPC)). Moreover, the T/C reads like this: under setting [5], 95 % of control; under setting [1], 119 % of control.
As for `O=c1ccn(C2OC(CO)C(O)C2O)c(=O)[nH]1` (stereo unspecified), the T/C is 113 % of control under setting [5]; 109 % of control (dose: 64.0 mg/kg/injection, schedule: Q01DX005 (ip), vehicle: saline); 90 % of control (dose: 128.0 mg/kg/injection, schedule: Q01DX005 (ip), vehicle: saline with Tween-80); 94 % of control (dose: 128.0 mg/kg/injection, schedule: Q01DX005 (ip), vehicle: saline); 109 % of control (dose: 256.0 mg/kg/injection, schedule: Q01DX005 (ip), vehicle: saline with Tween-80); 100 % of control (dose: 256.0 mg/kg/injection, schedule: Q01DX005 (ip), vehicle: saline). Moreover, the T/C was 99 % of control (dose: 512.0 mg/kg/injection, schedule: Q01DX005 (ip), vehicle: saline with Tween-80); 94 % of control (dose: 512.0 mg/kg/injection, schedule: Q01DX005 (ip), vehicle: saline); 99 % of control (dose: 1024.0 mg/kg/injection, schedule: Q01DX005 (ip), vehicle: saline with Tween-80); 96 % of control (dose: 1024.0 mg/kg/injection, schedule: Q01DX005 (ip), vehicle: saline).
Take `NC(=S)c1cn(C2OC(CO)C(O)C2O)c2ncnc(N)c12` (stereo unspecified): the T/C (dose: 1.88 mg/kg/injection, schedule: Q01DX005 (ip), vehicle: suspension in saline) was 94 % of control; the T/C (dose: 3.75 mg/kg/injection, schedule: Q01DX005 (ip), vehicle: suspension in saline) was 97 % of control; the T/C (dose: 7.5 mg/kg/injection, schedule: Q01DX005 (ip), vehicle: suspension in saline) was 108 % of control.
With `Nc1nc(SCc2ccccc2Cl)c2ncn(C3OC(CO)C(O)C3O)c2n1` (stereo unspecified), the T/C is, setting by setting: under setting [2], 103 % of control and 104 % of control; under setting [3], 98 % of control; under setting [4], 110 % of control and 119 % of control.
